ChEMBL document CHEMBL1158216, “Globostellatic acids A-D, new cytotoxic isomalabaricane triterpenes from the marine sponge Stelletta globostellata” (J Nat Prod, 1996)

Test system: P388
Experiment: Cytotoxicity against mouse P388 cells
Type: functional, cell-based

| SMILES | IC50 |
| --- | --- |
| COC(/C=C/C(C)=C/C=C/C(C)=C1\C(=O)C[C@H]2[C@@]3(C)CC[C@@H](O)[C@](C)(C(=O)[O-])[C@@H]3CC[C@]12C)C(C)(C)O.[Na+] (some centres undefined) [GLOBOSTELLATIC ACID D] | 0.1 µg/mL |
| COC(/C=C/C(C)(C)O)/C(C)=C/C=C/C(C)=C1\C(=O)C[C@H]2[C@@]3(C)CC[C@@H](OC(C)=O)[C@](C)(C(=O)[O-])[C@@H]3CC[C@]12C.[Na+] (some centres undefined) [GLOBOSTELLATIC ACID B] | 0.1 µg/mL |
| CC(=O)O[C@@H]1CC[C@@]2(C)[C@@H](CC[C@]3(C)/C(=C(\C)C(=O)/C=C/C(C)=C/C=C/C(C)(C)O)C(=O)C[C@@H]23)[C@@]1(C)C(=O)[O-].[Na+] [GLOBOSTELLATIC ACID A] | 0.1 µg/mL |
| COC(/C=C/C(C)=C/C=C/C(C)=C1\C(=O)C[C@H]2[C@@]3(C)CC[C@@H](OC(C)=O)[C@](C)(C(=O)[O-])[C@@H]3CC[C@]12C)C(C)(C)O.[Na+] (some centres undefined) [GLOBOSTELLATIC ACID C] | 0.46 µg/mL |
